Data on six cell lines can be found in the supplement of paper PMC10307832.

Experiment in all cases: relative viability (nuclei count vs DMSO), 5 days (fraction); higher = more cells survive
Compound in test [1]: CS(=O)(=O)c1ccc(-c2cnc(N)c(C(=O)Nc3ccccc3)n2)cc1 [VE-821] + N=C(N)NC(=N)NCCc1ccccc1 [Phenformin] (partner 250 µM)
The method, boiled down:
(§1)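 Lung cancer cell lines, seeded in 1536-well plates, were treated the following day by pin tool with a single drug or with five library-drug doses (not always all listed) in √10 steps on top of a fixed anchor-drug dose. Cells were fixed and nuclei stained in one step after 5 days, and nuclei were counted. Relative viability is the nuclei count for treated wells divided by that for vehicle wells, reported as medians of duplicate plates.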

Compound in test [2]: CS(=O)(=O)c1ccc(-c2cnc(N)c(C(=O)Nc3ccccc3)n2)cc1 [VE-821] + COc1cccc2cc(-c3nc([C@H]4CC[C@H](C(=O)O)CC4)n4ncnc(N)c34)[nH]c12 [OSI-027] (partner 0.5 µM)
The method, boiled down: as §1

Compound in test [3]: N#CC[C@H](C1CCCC1)n1cc(-c2ncnc3[nH]ccc23)cn1 [Ruxolitinib] + CC(C)C[C@H](NC(=O)[C@H](Cc1ccccc1)NC(=O)c1cnccn1)B(O)O [Bortezomib] (partner 0.002 µM)
The essentials: as §1

Compound in test [4]: CS(=O)(=O)c1ccc(C(=O)Nc2ccc(Cl)c(-c3ccccn3)c2)c(Cl)c1 [Vismodegib] + CC(C)C[C@H](NC(=O)[C@H](Cc1ccccc1)NC(=O)c1cnccn1)B(O)O [Bortezomib] (partner 0.002 µM)
The essentials: as §1

Consider LOU-NH91, for which the relative viability turned out to be 0.742 in test [1] (first compound 0.08 µM); 0.701 in test [1] (first compound 0.253 µM); 0.693 in test [1] (first compound 0.8 µM); 0.706 in test [1] (first compound 2.53 µM); 0.734 in test [1] (first compound 8 µM); 0.731 in test [2] (first compound 0.08 µM). For the same cell line, the relative viability in test [2] (first compound 0.253 µM) is 0.71; in test [2] (first compound 0.8 µM) it was 0.766; in test [2] (first compound 2.53 µM), 0.778; in test [2] (first compound 8 µM), 0.747; in test [3] (first compound 0.08 µM) it was 0.52; in test [3] (first compound 0.253 µM), 0.463. Further, the relative viability in test [3] (first compound 0.8 µM) turned out to be 0.492; in test [3] (first compound 2.53 µM), 0.47; in test [3] (first compound 8 µM), 0.534; in test [4] (first compound 0.08 µM) it was 0.507; in test [4] (first compound 0.253 µM), 0.537; in test [4] (first compound 0.8 µM), 0.471. Further, the relative viability in test [4] (first compound 2.53 µM) came out at 0.389; in test [4] (first compound 8 µM), 0.498.
As to LU99A, the relative viability stood at 0.947 in test [1] (first compound 0.08 µM); 0.896 in test [1] (first compound 0.253 µM); 0.807 in test [1] (first compound 0.8 µM); 0.873 in test [1] (first compound 2.53 µM); 0.478 in test [1] (first compound 8 µM); 0.298 in test [2] (first compound 0.08 µM). Further, the relative viability in test [2] (first compound 0.253 µM) worked out at 0.304; in test [2] (first compound 0.8 µM), 0.292; in test [2] (first compound 2.53 µM) it was 0.257; in test [2] (first compound 8 µM), 0.244; in test [3] (first compound 0.08 µM), 1.27; in test [3] (first compound 0.253 µM) it was 1.05. The relative viability in test [3] (first compound 0.8 µM) worked out at 1.21; in test [3] (first compound 2.53 µM), 1.15; in test [3] (first compound 8 µM), 0.842; in test [4] (first compound 0.08 µM), 1.12; in test [4] (first compound 0.253 µM) it was 1.13; in test [4] (first compound 0.8 µM) it was 1.25. The relative viability in test [4] (first compound 2.53 µM) came out at 1.09; in test [4] (first compound 8 µM) it was 1.15.
Turning to NCI-H358, the relative viability in test [1] (first compound 0.08 µM) worked out at 0.386; in test [1] (first compound 0.253 µM), 0.311; in test [1] (first compound 0.8 µM) it was 0.352; in test [1] (first compound 2.53 µM) it was 0.373; in test [1] (first compound 8 µM), 0.281; in test [2] (first compound 0.08 µM) it was 0.983. Further, the relative viability in test [2] (first compound 0.253 µM) came out at 0.875; in test [2] (first compound 0.8 µM), 0.727; in test [2] (first compound 2.53 µM), 0.79; in test [2] (first compound 8 µM) it was 0.48.
For the cell line NCI-H522, the relative viability amounted to 0.675 in test [1] (first compound 0.08 µM); 0.593 in test [1] (first compound 0.253 µM); 0.662 in test [1] (first compound 0.8 µM); 0.555 in test [1] (first compound 2.53 µM); 0.654 in test [1] (first compound 8 µM); 0.718 in test [2] (first compound 0.08 µM). The relative viability in test [2] (first compound 0.253 µM) is 0.779; in test [2] (first compound 0.8 µM) it was 0.76; in test [2] (first compound 2.53 µM) it was 0.65; in test [2] (first compound 8 µM) it was 0.677.
For the cell line NCI-H1299, the relative viability came out at 1 in test [3] (first compound 0.08 µM); 0.997 in test [3] (first compound 0.253 µM); 1.02 in test [3] (first compound 0.8 µM); 0.932 in test [3] (first compound 2.53 µM); 0.984 in test [3] (first compound 8 µM); 1.01 in test [4] (first compound 0.08 µM). For the same cell line, the relative viability in test [4] (first compound 0.253 µM) was found to be 0.985; in test [4] (first compound 0.8 µM) it was 1.04; in test [4] (first compound 2.53 µM), 1.01; in test [4] (first compound 8 µM), 0.973.
As for NCI-H1395, the relative viability was found to be 0.43 in test [1] (first compound 0.08 µM); 0.415 in test [1] (first compound 0.253 µM); 0.449 in test [1] (first compound 0.8 µM); 0.467 in test [1] (first compound 2.53 µM); 0.41 in test [1] (first compound 8 µM); 0.684 in test [2] (first compound 0.08 µM). Besides, the relative viability in test [2] (first compound 0.253 µM) is 0.605; in test [2] (first compound 0.8 µM), 0.607; in test [2] (first compound 2.53 µM), 0.639; in test [2] (first compound 8 µM), 0.484.
